Assay results reported in patent US11046686B2, “Thiadiazole IRAK4 compounds” (Gilead Sciences, Inc., priority 2018, dated 2021).
pEC50, pIC50: −log10 of the molar value. Read-outs that look alike come from different tables or passages of the source.

Tests used:
[1] = tested on: TNFα; assay: IRAK4 Monocyte TNFα Cell Based Assay; parameters: species or system human
In short: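 TNFα release quantified by HTRF (cryptate/XL665 antibody pair, overnight at RT) after 1 h compound pre-incubation (0.1% DMSO) and 4 h LPS challenge at 50 pg/ml, 37 °C, 5,000 monocytes per well. Signal ratio normalised between unstimulated (0%) and stimulated (100%) controls.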

[2] = molecular target: IRAK4 enzyme (Homo sapiens (Human), UniProt Q9NWZ3); assay: IRAK4 Biochemical Assay (TR-FRET, STK1 KinEASE)
In short: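 TR-FRET endpoint (KinEASE STK1): phosphopeptide detected with cryptate antibody and tracer after EDTA quench, ratio 665/615 nm, normalized to no-inhibitor wells as % inhibition. Reaction: 0.75 nM IRAK4, […] peptide, 500 μM ATP, pH 7.0 HEPES, 120 min room temperature, after 15 min compound preincubation with enzyme.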

[3] = Homo sapiens, Monocyte, human monocytes, second part of Table 2, compounds 33-343, unit inferred, read-out: EC50 MONO TNF HTRF
[4] = Homo sapiens, Monocyte, human monocytes, LPS stimulated, compounds 1-32, read-out: EC50 TNF
[5] = compounds 1-32, read-out: IC50 HTRF

Sequence of IRAK4 enzyme (Q9NWZ3 whole entry): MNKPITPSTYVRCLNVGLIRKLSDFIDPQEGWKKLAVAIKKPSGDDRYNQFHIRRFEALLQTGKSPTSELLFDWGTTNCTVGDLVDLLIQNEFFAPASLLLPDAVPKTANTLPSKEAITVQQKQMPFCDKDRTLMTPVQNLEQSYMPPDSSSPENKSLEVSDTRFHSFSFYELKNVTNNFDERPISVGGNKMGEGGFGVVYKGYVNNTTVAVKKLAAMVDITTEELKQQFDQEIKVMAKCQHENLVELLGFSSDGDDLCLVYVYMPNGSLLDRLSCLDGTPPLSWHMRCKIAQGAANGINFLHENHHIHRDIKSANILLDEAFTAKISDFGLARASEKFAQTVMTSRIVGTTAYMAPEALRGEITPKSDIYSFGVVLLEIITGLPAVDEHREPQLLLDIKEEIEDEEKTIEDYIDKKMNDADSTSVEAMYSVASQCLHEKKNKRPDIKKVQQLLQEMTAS

pEC50 [1, 4]	pIC50 [2, 5]	Compound	pEC50 [1, 3]	pIC50 [2]	also measured
		CC(C)(O)[C@@H]1C[C@@H]1c1nnc(-c2cnc(-c3ccc4cc(C#N)cnn34)cc2NC2COC2)s1 (single isomer, unassigned; isomer 3) [136 Isomer 3]			pEC50 ([1]; human monocytes, second part of Table 2, compounds 33-343, unit inferred, read-out: EC50 MONO TNF HTRF): 7.41; pIC50 ([2]; second part of Table 2, compounds 33-343, unit inferred, read-out: IC50 IRAK4-HTBS): 9.19
		CC(C)Nc1cc(-c2ccc3cc(C#N)cnn23)ncc1-c1nnc(N2CC[C@](C)(O)[C@H](F)C2)s1 [Example 192, 7-(5-(5-((3R,4S)-3-fluoro-4-hydroxy-4-methylpiperidin-1-yl)-1,3,4-thiadiazol-2-yl)-4-(isopropylamino)pyridin-2-yl)pyrrolo[1,2-b]pyridazine-3-carbonitrile]	7.61	8.92	
		CC(=O)N1CCC(c2nnc(-c3cnc(-c4ccc5cc(C#N)cnn45)cc3NC(C)C)s2)CC1 [Example 128, 7-(5-(5-(1-acetylpiperidin-4-yl)-1,3,4-thiadiazol-2-yl)-4-(isopropylamino)pyridin-2-yl)pyrrolo[1,2-b]pyridazine-3-carbonitrile]	7.73	9.23	
		CC(=O)N1C2CCC1CN(c1nnc(-c3cnc(-c4ccc5cc(C#N)cnn45)cc3NC(C)C)s1)C2 [Compound 259, 7-(5-(5-(8-acetyl-3,8-diazabicyclo[3.2.1]octan-3-yl)-1,3,4-thiadiazol-2-yl)-4-(isopropylamino)pyridin-2-yl)pyrrolo[1,2-b]pyridazine-3-carbonitrile]		9.03	pEC50 ([1]; Homo sapiens, Monocyte, read-out: EC50 MONO TNF HTRF): 8.59
		CC(C)Nc1cc(-c2ccc3cc(C#N)cnn23)ncc1-c1nnc(N2CC[C@@H](O)C(F)(F)C2)s1 [Example 162, (R)-7-(5-(5-(3,3-difluoro-4-hydroxypiperidin-1-yl)-1,3,4-thiadiazol-2-yl)-4-(isopropylamino)pyridin-2-yl)pyrrolo[1,2-b]pyridazine-3-carbonitrile]	7.58	8.64	
8.10	9.00	CC(=O)N[C@H]1CC[C@H](c2nnc(-c3cnc(-c4ccc5cc(C#N)cnn45)cc3N[C@H]3CC[C@H](c4nnc(C(F)F)o4)CC3)s2)CC1 [Example 2, N-((1R,4r)-4-(5-(6-(3-cyanopyrrolo[1,2-b]pyridazin-7-yl)-4-(((1r,4R)-4-(5-(difluoromethyl)-1,3,4-oxadiazol-2-yl)cyclohexyl)amino)pyridin-3-yl)-1,3,4-thiadiazol-2-yl)cyclohexyl)acetamide]			
5.20	8.77	CC(C)Nc1cc(-c2ccc3cc(C#N)cnn23)ncc1-c1nnc(-n2cccc2)s1 [Example 28, 7-(5-(5-(1H-pyrrol-1-yl)-1,3,4-thiadiazol-2-yl)-4-(isopropylamino)pyridin-2-yl)pyrrolo[1,2-b]pyridazine-3-carbonitrile]			
		CC(C)Nc1cc(-c2ccc3cc(C#N)cnn23)ncc1-c1nnc(N2CCOC(F)(F)C2)s1 [Example 167, 7-(5-(5-(2,2-difluoromorpholino)-1,3,4-thiadiazol-2-yl)-4-(isopropylamino)pyridin-2-yl)pyrrolo[1,2-b]pyridazine-3-carbonitrile]	6.00	8.74	
		CC(=O)N[C@@H]1CCN(c2nnc(-c3cnc(-c4ccc5cc(C#N)cnn45)cc3N[C@H](C)C#N)s2)CC1(F)F [Example 151, N-((R)-1-(5-(4-(((R)-1-cyanoethyl)amino)-6-(3-cyanopyrrolo[1,2-b]pyridazin-7-yl)pyridin-3-yl)-1,3,4-thiadiazol-2-yl)-3,3-difluoropiperidin-4-yl)acetamide]	8.30	8.99	

Compound	pEC50 [1, 4]	pIC50 [2, 5]	pEC50 [1, 3]	pIC50 [2]	also measured
CC(C)Nc1cc(-c2ccc3cc(C#N)cnn23)ncc1-c1nncs1 [Example 30, 7-(4-(isopropylamino)-5-(1,3,4-thiadiazol-2-yl)pyridin-2-yl)pyrrolo[1,2-b]pyridazine-3-carbonitrile]	7.11	9.00			
